Measurements: patent publication US20180085423A1, “METHODS FOR TREATING AND DIAGNOSING EATING DISORDERS” (THE TRUSTEES OF COLUMBIA UNIVERSITY IN THE CITY OF NEW YORK, priority 2015, published 2018)
Entries after “also recorded” stand apart in the source; their conditions may differ. Starred links: 1 amine or outer side, 2 acyl side, 3 side chain; linkers in the order of their positions; H or OH if unused. Positions of bridges follow the written chain, without caps; N, C: chain ends. Residues, ends and D or L forms follow the SMILES beside them. X1 = O=C(CC1(S[*:2])CCCCC1)[*:1]

What was measured:
[1] = test system: wild-type C57BL6/J females; experiment: Block of the impact of central injection of AVP (3 ng i.c.v.) on food intake after an overnight fast; type: in vivo, mice; conditions: fasted wild-type females; for reversal of AVP-induced hypophagia (1 hour food intake): peripheral injection, Compound 1 7 μg/kg, SR49059 2 mg/kg, AVP 3 ng i.c.v.
Protocol: First, it was confirmed that the antagonist compounds act as predicted by assessing their ability to block the impact of central injection of AVP (3 ng i.c.v.) on food intake after an overnight fast in wild-type C57BL6/J females.

wild-type mice [2] = experiment: Intra-amygdala AVP injection, food intake in wild-type mice; type: in vivo; conditions: 0.03 ng AVP unilateral intra-amygdala vs. saline
Protocol: (§1) In this example, it was tested whether the anorexic effect of AVP can also be achieved by intra-amygdala injections. The amygdala is a long structure extending from −0.58 mm to −2.5 mm to Bregma. To select the stereotaxic coordinates for the injections, qPCR for Avpr1a on serial 200 μm vibratome sections was performed across the entire amygdala. A peak of expression at −1.4 mm was observed. Unilateral injections of 0.03 ng AVP (vs. saline, in a random crossover design) were made into the amygdala of wild-type mice at this position (dorso-ventral −4.5 mm, lateral −2.4 mm (right side) and rostro-caudal −1.4 mm) (see FIG. 13A).

[3] = test system: Avpr1a−/− mutants (AVPR1a KO); experiment: Intra-amygdala AVP injection, food intake in Avpr1a-/- mutants; type: in vivo, mice; conditions: 0.03 ng AVP intra-amygdala vs. saline
Protocol: as §1
Since AVP can also bind to AVPR1b and OxtR, the intra-amygdala injections were repeated in Avpr1a−/− mutants (AVPR1a KO) as described above for the wild-type mice.

GED mice = experiment: Food intake of GED mice during an aphagic episode after i.p. injection of an AVPR1A antagonist; type: in vivo; conditions: for food intake versus saline-injected GED mice, 1 hour after treatment: Compound 1 7 μg/kg, SR49059 2 mg/kg
Protocol: In the morning of the first day of an aphagic episode (≧18 hr of aphagia), GED mice were injected i.p. with 7 μg/kg Compound 1 (Sigma) vs. saline.
To determine the extent to which treatment with Compound 1 rescued the normal drive to re-feed after overnight fast, food intake in a group of saline-injected GED mice that were eating normally were also measured, and were then subjected to an investigator-initiated overnight fast (a condition when AVPR1A should not be elevated in the amygdala) (triangle data points, FIG. 11).
Next, the possibility that AVPR1A antagonists could be used to restore feeding behavior in GED mice during an acute aphagic episode was explored. It was studied whether peripheral injection of Compound 1 and SR49059 can reverse anorexigenic behavior in the GED mouse model. To this end, the impact of i.p. injections of […] of Compound 1 vs. 2 mg/kg SR49059 vs. saline in the morning of the first day of an aphagic episode (≧18 h of aphagia) was assessed.
Mice were given ad libitum access to food immediately after the injection and food intake was measured after 1 hour and 2 hours.

wild-type mice [4] = experiment: Food intake after an overnight fast in wild-type mice injected with Compound 1; type: in vivo; conditions: wild-type mice at 7-8 weeks of age, versus saline
Protocol: It was also investigated whether Compound 1 acts as a generic appetite stimulant. To test this idea, the impact of injecting Compound 1 after an overnight fast in wild-type mice at 7-8 weeks of age (FIG. 11, diamond data points) was tested.

[5] = GED mice during aphagic episode, i.p., 1 hour

Row | SMILES | effect of central injection of AVP on food intake ([1]; 3 ng AVP i.c.v. vs. saline) | effect of intra-amygdala AVP on food intake, wild-type mice (wild-type mice [2]) | effect of intra-amygdala AVP on food intake, Avpr1a−/− mutants [3] | rescue of food intake at 1 hour relative to normally eating GED mice after overnight fast (GED mice; 7 μg/kg dose, 1 hour) | rescue of food intake at 2 hours relative to normally eating GED mice after overnight fast (GED mice; 7 μg/kg dose, 2 hour) | food intake versus saline-injected GED mice, 2 hours after treatment (GED mice; GED mice during aphagic episode, i.p., 2 hours) | food intake versus saline-injected GED mice, 1 hour after treatment (GED mice; [5]) | food intake in wild-type animals after an overnight fast (wild-type mice [4]) | reversal of AVP-induced hypophagia (1 hour food intake) [1] | reversal of AVP-induced hypophagia (1 hour food intake) ([1]; 2 mg/kg)
1 | NC(=O)CC[C@@H]1NC(=O)[C@H](Cc2ccccc2)NC(=O)[C@H](Cc2ccc(O)cc2)NC(=O)[C@@H](N)CSSC[C@@H](C(=O)N2CCC[C@H]2C(=O)N[C@@H](CCCN=C(N)N)C(=O)NCC(N)=O)NC(=O)[C@H](CC(N)=O)NC1=O [AVP, arginine vasopressin] | hypophagia | food intake was reduced | did not affect food intake; also recorded: anorexic effect is not observed |  |  |  |  |  |  | 
2 | COc1ccc(CC2NC(=O)CC3(CCCCC3)SSCC(C(=O)N3CCCC3C(=O)NC(CCCN=C(N)N)C(=O)NCC(N)=O)NC(=O)C(CC(N)=O)NC(=O)C(CCC(N)=O)NC(=O)C(Cc3ccccc3)NC2=O)cc1 (stereo not drawn) [Compound 1, 1-(beta-mercapto-betabeta-cycopentamethylenepropionic acid)-2-(O-methyl-Tyr)-argipressin] (Y(Me)FQNCPRG-NH2; linker N-5 via X1; configuration not given here) |  |  |  | partial rescue | nearly normalized | consumed significantly more food | consumed significantly more food | did not impact food intake | can restore 1 hour food intake; also recorded: able to reverse hypophagia | 
3 | COc1ccc(S(=O)(=O)N2c3ccc(Cl)cc3[C@](O)(c3ccccc3Cl)[C@@H]2C(=O)N2CCC[C@H]2C(N)=O)cc1OC [SR49059] |  |  |  |  |  |  | did not enhance food intake |  |  | did not significantly reverse AVP-induced hypophagia; also recorded: did not have that effect
